Test results reported in patent US10501421B1, “Substituted benzimidazoles as modulators of Ras signaling” (VANDERBILT UNIVERSITY, priority 2017, dated 2019).
pEC50, pKi: −log10 of the molar value.

Key:
[1] = target: Ras GEF SOS (Son of Sevenless) (Homo sapiens, UniProt Q07889); experiment: SOS-mediated nucleotide exchange on Ras (BODIPY-GDP fluorescence); type: biochemical; details: SOS-mediated exchange of BODIPY-GDP for GTP on Ras
How it was run: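 Exchange rates were taken from single-exponential fits of the fluorescence time course as BODIPY-GDP on Ras was replaced by GTP. Compound went in first, then GTP and SOS. Mean rates plotted against concentration gave EC50 by four-parameter dose-response fitting.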

Son of Sevenless (SOS) = target: T1, Son of Sevenless (SOS) (Homo sapiens, UniProt Q07889); experiment: Binding to SOS, fluorescence polarization anisotropy (FPA) probe displacement; details: displacement of FITC-conjugated probe (Example 285), affinity calculated from IC50
T1 sequence (Q07889 564-1049 limits assumed): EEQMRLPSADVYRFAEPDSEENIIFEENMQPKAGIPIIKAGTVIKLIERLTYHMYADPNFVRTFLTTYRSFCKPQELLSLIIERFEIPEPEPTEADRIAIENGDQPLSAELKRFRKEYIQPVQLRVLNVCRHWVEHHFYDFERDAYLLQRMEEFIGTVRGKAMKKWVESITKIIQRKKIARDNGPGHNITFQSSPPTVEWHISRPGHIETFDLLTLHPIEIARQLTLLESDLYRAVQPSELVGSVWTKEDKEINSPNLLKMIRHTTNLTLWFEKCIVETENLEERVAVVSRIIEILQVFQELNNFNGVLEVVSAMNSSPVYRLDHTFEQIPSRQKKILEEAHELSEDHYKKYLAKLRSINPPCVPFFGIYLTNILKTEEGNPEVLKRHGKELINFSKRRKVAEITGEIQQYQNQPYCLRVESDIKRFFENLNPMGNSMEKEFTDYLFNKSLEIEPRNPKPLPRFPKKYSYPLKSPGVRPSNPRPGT
How it was run: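 Test compounds were titrated against SOS pre-bound to a fluorescein-labelled probe, with anisotropy plotted versus compound concentration. Binding affinities were derived from IC50 values obtained by four-parameter dose-response fitting.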

Sequence of Ras GEF SOS (Son of Sevenless) (P01112 1-166 partner limits assumed, one chain of several): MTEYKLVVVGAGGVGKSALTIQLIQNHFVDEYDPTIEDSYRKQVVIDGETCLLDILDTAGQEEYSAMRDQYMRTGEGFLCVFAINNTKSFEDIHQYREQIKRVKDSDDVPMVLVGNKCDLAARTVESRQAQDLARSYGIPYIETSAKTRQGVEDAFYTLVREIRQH

Row | Structure (SMILES) | pEC50 [1] | pKi (Son of Sevenless (SOS))
1 | Cc1cnc2nc(NCCN)n(Cc3ccc(F)c(C)c3)c2c1 [Example 245, N^1-(1-(4-fluoro-3-methylbenzyl)-6-methyl-1H-imidazo[4,5-b]pyridin-2-yl)ethane-1,2-diamine] | 5.30 to 6.00 | < 5.30
2 | Cc1cnc2nc(NCCN)n(Cc3ccc(F)c(Cl)c3)c2c1 [Example 246, N^1-(1-(3-chloro-4-fluorobenzyl)-6-methyl-1H-imidazo[4,5-b]pyridin-2-yl)ethane-1,2-diamine] | 5.30 to 6.00 | 5.30 to 6.00
3 | Cc1cnc2nc(NC3CCNC3)n(Cc3ccc(F)c(Cl)c3)c2c1 (stereo not drawn) [Example 247, 1-(3-chloro-4-fluorobenzyl)-6-methyl-N-(pyrrolidin-3-yl)-1H-imidazo[4,5-b]pyridin-2-amine] | 5.30 to 6.00 | 5.30 to 6.00
4 | Clc1ccc(Cn2c(N3CCNCC3)nc3ncccc32)cc1 [Example 251, 1-(4-chlorobenzyl)-2-(piperazin-1-yl)-1H-imidazo[4,5-b]pyridine] | 4.00 to 4.52 | < 5.30
5 | Cc1cc2c(nc(N3CCNCC3)n2Cc2ccc(F)c(Cl)c2)c(-c2cccnc2)c1C [Example 265, 1-[(3-chloro-4-fluorophenyl)methyl]-5,6-dimethyl-2-piperazin-1-yl-4-pyridin-3-ylbenzimidazole] | 5.30 to 6.00 | 5.30 to 6.00
6 | Fc1ccc(Cn2c(N3CCNCC3)nc3c(-c4cccnc4OCc4ccccc4)cccc32)cc1Cl [Example 266, 1-[(3-chloro-4-fluorophenyl)methyl]-4-(2-phenylmethoxypyridin-3-yl)-2-piperazin-1-ylbenzimidazole] | 4.52 to 5.30 | < 5.30
7 | Cc1ccc2nc([C@@H]3CCC(=O)N3)n(Cc3ccc(F)c(Cl)c3)c2c1 [Example 274, (5S)-5-[1-[(3-chloro-4-fluorophenyl)methyl]-6-methylbenzimidazol-2-yl]pyrrolidin-2-one] | 5.30 to 6.00 | < 5.30
8 | Cc1cc2nc(N3CCNCC3)n(Cc3cc(Cl)c(F)c(Cl)c3)c2cc1C [Example 277, 1-[(3,5-dichloro-4-fluorophenyl)methyl]-5,6-dimethyl-2-piperazin-1-ylbenzimidazole] | 5.30 to 6.00 | < 5.30
9 | OCc1cc(Cl)cc2c1nc(N1CCNCC1)n2Cc1ccc(F)c(Cl)c1 [Example 278, [6-chloro-1-[(3-chloro-4-fluorophenyl)methyl]-2-piperazin-1-ylbenzimidazol-4-yl]methanol] | > 6.00 | 5.30 to 6.00
10 | Cc1cc(Cn2c(N3CCNCC3)nc3c(-n4ccc(N)c4)cc(Cl)cc32)cc(C)c1F [Example 279, 1-[6-chloro-1-[(4-fluoro-3,5-dimethylphenyl)methyl]-2-piperazin-1-ylbenzimidazol-4-yl]pyrrol-3-amine] | 5.30 to 6.00 | > 6.30
11 | Cc1cc(Cn2c(N3CCNCC3)nc3c(C(N)C(=O)O)cc(Cl)cc32)cc(C)c1F (stereo not drawn) [Example 282, 2-amino-2-[6-chloro-1-[(4-fluoro-3,5-dimethylphenyl)methyl]-2-piperazin-1-ylbenzimidazol-4-yl]acetic acid] | 5.30 to 6.00 | 6.00 to 6.30
12 | NC(CO)c1cc(Cl)cc2c1nc(N1CCNCC1)n2Cc1ccc(F)c(Cl)c1 (stereo not drawn) [Example 283, 2-amino-2-[6-chloro-1-[(3-chloro-4-fluorophenyl)methyl]-2-piperazin-1-ylbenzimidazol-4-yl]ethanol] | 4.52 to 5.30 | < 5.30
13 | Cc1cc2nc(N3CC(CN)C3)n(Cc3ccc(F)c(Cl)c3)c2cc1C [Example 288, (1-(1-(3-chloro-4-fluorobenzyl)-5,6-dimethyl-1H-benzo[d]imidazol-2-yl)azetidin-3-yl)methanamine] | > 6.00 | 5.30 to 6.00
14 | Cc1cc2nc(N3CCCC(N)C3)n(Cc3ccc(F)c(Cl)c3)c2cc1C (stereo not drawn) [Example 290, 1-(1-(3-chloro-4-fluorobenzyl)-5,6-dimethyl-1H-benzo[d]imidazol-2-yl)piperidin-3-amine] | 5.30 to 6.00 | 5.30 to 6.00
15 | Cc1cc2nc(NCC3CNC3)n(Cc3ccc(F)c(Cl)c3)c2cc1C [Example 291, N-(azetidin-3-ylmethyl)-1-(3-chloro-4-fluorobenzyl)-5,6-dimethyl-1H-benzo[d]imidazol-2-amine] | > 6.00 | 5.30 to 6.00
16 | Cc1cc2nc(N[C@H]3C[C@@H](N)C3)n(Cc3ccc(F)c(Cl)c3)c2cc1C [Example 292, (1s,3s)-N^1-(1-(3-chloro-4-fluorobenzyl)-5,6-dimethyl-1H-benzo[d]imidazol-2-yl)cyclobutane-1,3-diamine] | 5.30 to 6.00 | 5.30 to 6.00
17 | Cc1cc2nc(NC3CCNC3)n(Cc3ccc(F)c(Cl)c3)c2cc1C (stereo not drawn) [Example 293, 1-(3-chloro-4-fluorobenzyl)-5,6-dimethyl-N-(pyrrolidin-3-yl)-1H-benzo[d]imidazol-2-amine] | 5.30 to 6.00 | 5.30 to 6.00
18 | Cc1cc2nc(N3CCC(N)CC3)n(Cc3ccc(F)c(Cl)c3)c2cc1C [Example 294, 1-(1-(3-chloro-4-fluorobenzyl)-5,6-dimethyl-1-benzo[d]imidazol-2-yl)piperidin-4-amine] | 4.52 to 5.30 | < 5.30
19 | Cc1cc(Cn2c(N3CCNCC3)nc3c(N4CCCCC4)cc(Cl)cc32)cc(C)c1F [Example 297, 6-chloro-1-(4-fluoro-3,5-dimethylbenzyl)-2-(piperazin-1-yl)-4-(piperidin-1-yl)-1H-benzo[d]imidazole] | 5.30 to 6.00 | > 6.30
20 | Cc1cc(Cn2c(NCCN)nc3c(N4CCC(N)CC4)cc(Cl)cc32)cc(C)c1F [Example 298, N^1-(4-(4-aminopiperidin-1-yl)-6-chloro-1-(4-fluoro-3,5-dimethylbenzyl)-1H-benzo[d]imidazol-2-yl)ethane-1,2-diamine] | > 6.00 | > 6.30
21 | Cc1cc(Cn2c(NCCN)nc3c(N4CCNCC4)cc(Cl)cc32)cc(C)c1F [Example 299, N^1-(6-chloro-1-(4-fluoro-3,5-dimethylbenzyl)-4-(piperazin-1-yl)-1H-benzo[d]imidazol-2-yl)ethane-1,2-diamine] | > 6.00 | > 6.30

Further lines, results first:

Row | pEC50 [1] | pKi (Son of Sevenless (SOS)) | Structure (SMILES)
22 | 5.30 to 6.00 | < 5.30 | Cc1cc2c(nc(N3CCNCC3)n2Cc2ccc(F)c(C)c2)c(-c2ccc(CN)cc2)n1 [Example 229, (4-(1-(4-fluoro-3-methylbenzyl)-6-methyl-2-(piperazin-1-yl)-1H-imidazo[4,5-c]pyridin-4-yl)phenyl)methanamine]
23 | 4.52 to 5.30 | < 5.30 | COc1ccc(-c2nc(C)cc3c2nc(N2CCNCC2)n3Cc2ccc(F)c(C)c2)cc1OC [Example 230, 4-(3,4-dimethoxyphenyl)-1-(4-fluoro-3-methylbenzyl)-6-methyl-2-(piperazin-1-yl)-1H-imidazo[4,5-c]pyridine]
24 | 4.52 to 5.30 | < 5.30 | Cc1cc2c(nc(N3CCNCC3)n2Cc2ccc(F)c(C)c2)c(CNCC(C)C)n1 [Example 231, N-((1-(4-fluoro-3-methylbenzyl)-6-methyl-2-(piperazin-1-yl)-1H-imidazo[4,5-c]pyridin-4-yl)methyl)-2-methylpropan-1-amine]
25 | 4.52 to 5.30 | < 5.30 | Cc1cc2c(nc(N3CCNCC3)n2Cc2ccc(F)c(C)c2)c(CNC2CCCC2)n1 [Example 232, N-((1-(4-fluoro-3-methylbenzyl)-6-methyl-2-(piperazin-1-yl)-1H-imidazo[4,5-c]pyridin-4-yl)methyl)cyclopentanamine]
26 | 4.52 to 5.30 | < 5.30 | Cc1cc2c(nc(N3CCNCC3)n2Cc2ccc(F)c(C)c2)c(CNC(C)C)n1 [Example 233, N-((1-(4-fluoro-3-methylbenzyl)-6-methyl-2-(piperazin-1-yl)-1H-imidazo[4,5-c]pyridin-4-yl)methyl)propan-2-amine]
27 | 4.52 to 5.30 | < 5.30 | Cc1cc2c(nc(N3CCNCC3)n2Cc2ccc(F)c(C)c2)c(CNCCC(C)C)n1 [Example 234, N-((1-(4-fluoro-3-methylbenzyl)-6-methyl-2-(piperazin-1-yl)-1H-imidazo[4,5-c]pyridin-4-yl)methyl)-3-methylbutan-1-amine]
28 | 4.00 to 4.52 | < 5.30 | Cc1cc2c(nc(N3CCNCC3)n2Cc2ccc(F)c(C)c2)c(CN2CCCCC2)n1 [Example 235, 1-(4-fluoro-3-methylbenzyl)-6-methyl-2-(piperazin-1-yl)-4-(piperidin-1-ylmethyl)-1H-imidazo[4,5-c]pyridine]
29 | > 6.00 | 5.30 to 6.00 | Cc1cc(CO)c2nc(N3CCNCC3)n(Cc3cc(C)c(F)c(C)c3)c2c1 [Example 280, [1-[(4-fluoro-3,5-dimethylphenyl)methyl]-6-methyl-2-piperazin-1-ylbenzimidazol-4-yl]methanol]
30 | 5.30 to 6.00 | > 6.30 | Cc1cc(Cn2c(N3CCNCC3)nc3c(N(C)C)cc(Cl)cc32)cc(C)c1F [Example 296, 6-chloro-1-(4-fluoro-3,5-dimethylbenzyl)-N,N-dimethyl-2-(piperazin-1-yl)-1H-benzo[d]imidazol-4-amine]
